Laboratory results reported in patent publication US11850247B2, “Antiviral compounds” (REGENTS OF THE UNIVERSITY OF MINNESOTA, priority 2020, dated 2023).

How the values were obtained:
HIV-1 = test: Anti-HIV-1 activity in TZM-GFP cells (viral LTR-activated GFP expression); format: cell-based; settings: for inhibition at 2 µM: Human immunodeficiency virus 1, 2 μM compound; for inhibition at 2 µM / inhibition at 20 µM: HIV-1 MOI=1; for inhibition at 20 µM: Human immunodeficiency virus 1, 20 μM compound; for EC50: Human immunodeficiency virus 1, HIV-1 strain MOI=1, GFP positive cells counted after 48 hours
Protocol: The potency of HIV-1 inhibition by a compound was based on its inhibitory effect on viral LTR-activated GFP expression compared with that of compound-free (DMSO) controls. Briefly, TZM-GFP cells were plated at density of 1×10^4 cells per well in a 96-well plate. 24 hours later, media was replaced with increasing concentrations of compound. 24 hours post treatment, cells were exposed to an HIV-1 strain (MOI=1).
(§1) The cytotoxicity of each compound was also determined in TZM-GFP cells. Cells were plated at a density of 1×10^4 cells per well in a 96-well plate and were continuously exposed to increasing concentrations of a compound for 72 hours. The number of viable cells in each well was determined using a Cell Proliferation Kit II (XTT), and 50% cytotoxicity concentration (CC50) values were determined. All the cell-based assays were conducted in duplicate and in at least two independent experiments. For the EC50 and CC50 dose responses, values were plotted in GraphPad Prism 5 and analyzed with the log (inhibitor) vs. normalized response-variable slope equation. Final values were calculated in each independent assay and the average values were determined. Statistical analysis (calculation of standard deviation) was performed by using Microsoft Excel.

[1] = Cytotoxicity in TZM-GFP cells (XTT); format: cell-based; settings: human, 72 hours exposure, XTT
Protocol: as §1

[2] = biological target: covalently-crosslinked hexameric CA A14C/E45C/W184A/M185A (CA121) (Human immunodeficiency virus type 1 group M subtype B, UniProt P12493, A146C/E177C/M317A/W316A); test: Thermal shift assay (TSA), CA hexamer stability; format: binding, HIV-1; settings: compound 20 μM, ΔTm=Tm−T0 vs DMSO

Compound | inhibition at 2 µM (HIV-1) [%] | inhibition at 20 µM (HIV-1) [%] | CC50 at 72 h [1] [µM] | TSA ΔTm (° C.) [2] [°C] | EC50 (HIV-1) [µM]
Cc1cccc2c1NC(=O)C2CC(=O)N[C@@H](Cc1ccccc1)C(=O)N(C)c1ccccc1 (stereo partly drawn) [Example 1, (2S)—N-methyl-2-(2-(7-methyl-2-oxoindolin-3-yl)acetamido)-N,3-diphenylpropanamide] | 0 | 91 | > 50 | −1.2 | –
Cc1cccc2c1NC(=O)C2CC(=O)N[C@@H](Cc1ccccc1)C(=O)N(C)c1ccc(Cl)cc1 (stereo partly drawn) [Example 2, (2S)—N-(4-chlorophenyl)-N-methyl-2-(2-(7-methyl-2-oxoindolin-3-yl)acetamido)-3-phenylpropanamide] | 17 | 96 | ~50 | −0.4 | –
Cc1cccc2c1NC(=O)C2CC(=O)N[C@@H](Cc1ccccc1)C(=O)N(C)c1cccc(Cl)c1 (stereo partly drawn) [Example 3, (2S)—N-(3-chlorophenyl)-N-methyl-2-(2-(7-methyl-2-oxoindolin-3-yl)acetamido)-3-phenylpropanamide] | – | – | > 100 | −1.7 | 3.3 ± 0.3
Cc1cccc2c1NC(=O)C2CC(=O)N[C@@H](Cc1ccccc1)C(=O)N(C)c1cccc(F)c1 (stereo partly drawn) [Example 4, (2S)—N-(3-fluorophenyl)-N-methyl-2-(2-(7-methyl-2-oxoindolin-3-yl)acetamido)-3-phenylpropanamide] | 0 | 93 | > 50 | −0.9 | –
Cc1ccc(C)c2c1NC(=O)C2CC(=O)N[C@@H](Cc1ccccc1)C(=O)N(C)c1ccccc1 (stereo partly drawn) [Example 5, (2S)-2-(2-(4,7-dimethyl-2-oxoindolin-3-yl)acetamido)-N-methyl-N,3-diphenylpropanamide] | – | – | > 100 | −1.8 | 4.9 ± 0.3
Cc1ccc(C)c2c1NC(=O)C2CC(=O)N[C@@H](Cc1ccccc1)C(=O)N(C)c1ccc(F)cc1 (stereo partly drawn) [Example 6, (2S)-2-(2-(4,7-dimethyl-2-oxoindolin-3-yl)acetamido)-N-(4-fluorophenyl)-N-methyl-3-phenylpropanamide] | – | – | > 100 | −1.7 | 5.4 ± 0.5
Cc1ccc(C)c2c1NC(=O)C2CC(=O)N[C@@H](Cc1ccccc1)C(=O)N(C)c1cccc(F)c1 (stereo partly drawn) [Example 7, (2S)-2-(2-(4,7-dimethyl-2-oxoindolin-3-yl)acetamido)-N-(3-fluorophenyl)-N-methyl-3-phenylpropanamide] | – | – | 60 ± 6 | −1.8 | 5.2 ± 0.4
Cc1ccc(C)c2c1NC(=O)C2CC(=O)N[C@@H](Cc1ccccc1)C(=O)N(C)c1ccc(Cl)cc1 (stereo partly drawn) [Example 8, (2S)—N-(4-chlorophenyl)-2-(2-(4,7-dimethyl-2-oxoindolin-3-yl)acetamido)-N-methyl-3-phenylpropanamide] | – | – | 63 ± 13 | −1.3 | 2.8 ± 0.1
Cc1ccc(C)c2c1NC(=O)C2CC(=O)N[C@@H](Cc1ccccc1)C(=O)N(C)c1cccc(Cl)c1 (stereo partly drawn) [Example 9, (2S)—N-(3-chlorophenyl)-2-(2-(4,7-dimethyl-2-oxoindolin-3-yl)acetamido)-N-methyl-3-phenylpropanamide] | – | – | 43 ± 2 | −2.4 | 2.1 ± 0.2
CN(C(=O)[C@H](Cc1ccccc1)NC(=O)Cc1ccc2ccccc2c1)c1ccccc1 [Example 10, (S)—N-methyl-2-(2-(naphthalen-2-yl)acetamido)-N,3-diphenylpropanamide] | 40 | 98 | < 50 | 4.8 | –
Cc1ccc(N(C)C(=O)[C@H](Cc2ccccc2)NC(=O)Cc2ccc3ccccc3c2)cc1 [Example 11, (S)—N-methyl-2-(2-(naphthalen-2-yl)acetamido)-3-phenyl-N-(p-tolyl)propanamide] | – | – | < 50 | 6.4 | 0.99 ± 0.005
CN(C(=O)[C@H](Cc1ccccc1)NC(=O)Cc1ccc2ccccc2c1)c1ccc(Cl)cc1 [Example 12, (S)—N-(4-chlorophenyl)-N-methyl-2-(2-(naphthalen-2-yl)acetamido)-3-phenylpropanamide] | – | – | < 50 | 7.0 | 0.63 ± 0.02
CN(C(=O)[C@H](Cc1ccccc1)NC(=O)Cc1ccc2ccccc2c1)c1cccc(Cl)c1 [Example 13, (S)—N-(3-chlorophenyl)-N-methyl-2-(2-(naphthalen-2-yl)acetamido)-3-phenylpropanamide] | 0 | 94 | < 50 | 4.3 | –
CN(C(=O)[C@H](Cc1ccccc1)NC(=O)Cc1ccc2ccccc2c1)c1cccc(F)c1 [Example 14, (S)—N-(3-fluorophenyl)-N-methyl-2-(2-(naphthalen-2-yl)acetamido)-3-phenylpropanamide] | 0 | 97 | < 50 | 5.2 | –
CCN(C(=O)[C@H](Cc1ccccc1)NC(=O)Cc1ccc2ccccc2c1)c1ccccc1 [Example 15, (S)—N-ethyl-2-(2-(naphthalen-2-yl)acetamido)-N,3-diphenylpropanamide] | 46 | 97 | < 50 | 4.3 | –
CN(C(=O)[C@H](Cc1ccccc1)NC(=O)Cc1cccc2ccccc12)c1ccccc1 [Example 16, (S)—N-methyl-2-(2-(naphthalen-1-yl)acetamido)-N,3-diphenylpropanamide] | – | – | < 50 | 6.0 | 1.1 ± 0.04
Cc1ccc(N(C)C(=O)[C@H](Cc2ccccc2)NC(=O)Cc2cccc3ccccc23)cc1 [Example 17, (S)—N-methyl-2-(2-(naphthalen-1-yl)acetamido)-3-phenyl-N-(p-tolyl)propanamide] | – | – | < 50 | 5.7 | 1 ± 0.2
O=C(Cc1c[nH]c2ccccc12)N[C@@H](Cc1ccccc1)c1ncccc1-c1ccc(Cl)cc1 [Example 54, (S)-2-(1H-indol-3-yl)-N-(2-phenyl-1-(3-(4-chlorophenyl)pyridin-2-yl)ethyl)acetamide] | – | – | – | 7.7 ± 0.2 | 0.79 ± 0.25
COc1ccc2[nH]cc(CC(=O)N[C@@H](Cc3ccccc3)c3ncccc3-c3ccc(Cl)cc3)c2c1 [Example 55, (S)-2-(5-methoxy-1H-indol-3-yl)-N-(2-phenyl-1-(3-(4-chlorophenyl)pyridin-2-yl)ethyl)acetamide] | – | – | – | 7.8 ± 0.3 | 1.4 ± 0.7
O=C(Cc1c[nH]c2ccc(O)cc12)N[C@@H](Cc1ccccc1)c1ncccc1-c1ccc(Cl)cc1 [Example 56, (S)-2-(5-hydroxy-1H-indol-3-yl)-N-(2-phenyl-1-(3-(4-chlorophenyl)pyridin-2-yl)ethyl)acetamide] | – | – | – | 8.7 ± 0.3 | 0.31 ± 0.07
CCn1cc(CC(=O)N[C@@H](Cc2ccccc2)c2ncccc2-c2ccc(Cl)cc2)c2ccccc21 [Example 57, (S)-2-(1-ethyl-1H-indol-3-yl)-N-(2-phenyl-1-(3-(4-chlorophenyl)pyridin-2-yl)ethyl)acetamide] | – | – | – | 6.6 ± 0.2 | 2.7 ± 0.2
CCn1cc(CC(=O)N[C@@H](Cc2ccccc2)c2ncccc2-c2ccc(Cl)cc2)c2cc(OC)ccc21 [Example 58, (S)-2-(1-ethyl-5-methoxy-1H-indol-3-yl)-N-(2-phenyl-1-(3-(4-chlorophenyl)pyridin-2-yl)ethyl)acetamide] | – | – | – | 5.9 ± 0.2 | 3.6 ± 0.2
COc1ccc2[nH]cc(CC(=O)N[C@@H](Cc3ccccc3)c3ncccc3-c3ccc(Br)cc3)c2c1 [Example 59, (S)-2-(5-methoxy-1H-indol-3-yl)-N-(2-phenyl-1-(3-(4-bromophenyl)pyridin-2-yl)ethyl)acetamide] | – | – | – | 6.3 ± 0.6 | 2.1 ± 0.8
CCn1cc(CC(=O)N[C@@H](Cc2ccccc2)c2ncccc2-c2ccc(Br)cc2)c2ccccc21 [Example 60, (S)-2-(1-ethyl-1H-indol-3-yl)-N-(2-phenyl-1-(3-(4-bromophenyl)pyridin-2-yl)ethyl)acetamide] | – | – | – | 6.3 ± 0.1 | 3.2 ± 0.3
COc1ccc2[nH]cc(CC(=O)N[C@@H](Cc3ccccc3)c3nccn3-c3ccc(Cl)cc3)c2c1 [Example 61, (S)-2-(5-methoxy-1H-indol-3-yl)-N-(2-phenyl-1-(1-(4-chlorophenyl)-1H-imidazol-2-yl)ethyl)acetamide] | – | – | – | 4.0 ± 0.3 | 3.3 ± 0.03
COc1ccc2[nH]cc(CC(=O)N[C@@H](Cc3ccccc3)c3nccn3-c3ccc(Br)cc3)c2c1 [Example 62, (S)-2-(5-methoxy-1H-indol-3-yl)-N-(2-phenyl-1-(1-(4-bromophenyl)-1H-imidazol-2-yl)ethyl)acetamide] | – | – | – | 2.8 ± 0.3 | 3.5 ± 0.3
COc1ccc2[nH]cc(CC(=O)N[C@@H](Cc3ccccc3)c3nccn3-c3ccc(I)cc3)c2c1 [Example 63, (S)-2-(5-methoxy-1H-indol-3-yl)-N-(2-phenyl-1-(1-(4-iodophenyl)-1H-imidazol-2-yl)ethyl)acetamide] | – | – | – | 2.7 ± 0.1 | 3.3 ± 0.2
